Test results reported in patent US5677341A, “Emulsion suitable for administering a sphingolipid” (priority 1996, dated 1997).

Key:
[1] = primary amine group of sphingosine; cited from earlier work
[2] = acute toxicity on administration in the emulsion (infusion); type: in vivo; conditions: 120 mg per square meter, diluted to about 0.5 mg/ml in 5% dextrose, approximately one hour co-infusion with cisplatin or doxorubicin
Description: (§1) The presently recommended dose of safingol, administered in the formulation described by the present invention, is 120 mg per square meter body surface or about 200 mg for a typical adult patient. A sterile emulsion is first diluted to a convenient drug concentration (typically about 0.5 mg/ml) using 5% dextrose for injection. A standard chemotherapeutic agent, such as cisplatin or doxorubicin, is co-infused with safingol over approximately a one hour time period. This therapy may be safety repeated every 14 to 21 days. […] Such toxicity may include intravascular hemolysis and lung embolism.

[3] = acute toxicity in animals when administered in organic solvents or in aqueous vehicles; type: in vivo; conditions: similar doses, may include intravascular hemolysis and lung embolism
Description: as §1

protein kinase C = conditions: in vitro and in vivo; cited from earlier work

Row | SMILES | pKa [1] | acute toxicity, administered in the emulsion of the invention [2] | acute toxicity, in organic solvents or in aqueous vehicles [3] | inhibition of protein kinase C (protein kinase C)
1 | CCCCCCCCCCCCC/C=C/[C@@H](O)[C@@H](N)CO [Sphingosine, 4-sphingenine] | ~ 6.5 |  |  | 
2 | CCCCCCCCCCCCCCC[C@H](O)[C@@H](N)CO [safingol, (2S,3S)-2-amino-1,3-octadecanediol] |  | no acute toxicity | unacceptable acute toxicity is observed | potent inhibitors of protein kinase C, both in vitro and in vivo
